Target: SAE (Homo sapiens (Human), UniProt Q9UBT2)
Experiment: In vitro inhibitory activity assay against SAE (SUMO-2/3 immunofluorescence in HCT116 cells)
Type: cell-based
Settings: 6 h incubation, class symbols, read-out: SUMO IF IC50
Procedure, shortened: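 HCT116 cells treated with compounds for 6 h at 37 °C, then fixed, permeabilized and immunostained for SUMO-2/3 with FITC secondary detection. Fluorescence compared with DMSO control to give inhibition rate and IC50.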

SAE, sequence (Q9UBT2 whole entry): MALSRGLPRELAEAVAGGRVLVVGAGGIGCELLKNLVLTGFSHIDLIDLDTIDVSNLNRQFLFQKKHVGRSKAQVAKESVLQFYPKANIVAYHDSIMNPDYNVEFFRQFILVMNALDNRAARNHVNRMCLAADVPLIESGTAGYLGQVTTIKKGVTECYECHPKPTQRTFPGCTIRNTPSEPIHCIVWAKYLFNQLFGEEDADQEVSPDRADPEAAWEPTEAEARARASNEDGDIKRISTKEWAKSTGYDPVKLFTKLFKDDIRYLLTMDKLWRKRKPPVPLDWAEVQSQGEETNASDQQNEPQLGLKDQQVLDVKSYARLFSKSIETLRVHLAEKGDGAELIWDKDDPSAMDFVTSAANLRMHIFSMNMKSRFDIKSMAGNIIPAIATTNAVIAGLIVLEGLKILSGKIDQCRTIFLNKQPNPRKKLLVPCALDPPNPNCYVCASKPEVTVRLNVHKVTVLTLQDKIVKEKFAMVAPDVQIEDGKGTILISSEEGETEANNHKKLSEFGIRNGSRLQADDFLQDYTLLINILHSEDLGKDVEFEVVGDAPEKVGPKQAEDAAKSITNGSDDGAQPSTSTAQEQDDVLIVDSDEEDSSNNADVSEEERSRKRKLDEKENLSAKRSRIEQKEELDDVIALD
SAE, sequence (Q9UBE0 whole entry partner): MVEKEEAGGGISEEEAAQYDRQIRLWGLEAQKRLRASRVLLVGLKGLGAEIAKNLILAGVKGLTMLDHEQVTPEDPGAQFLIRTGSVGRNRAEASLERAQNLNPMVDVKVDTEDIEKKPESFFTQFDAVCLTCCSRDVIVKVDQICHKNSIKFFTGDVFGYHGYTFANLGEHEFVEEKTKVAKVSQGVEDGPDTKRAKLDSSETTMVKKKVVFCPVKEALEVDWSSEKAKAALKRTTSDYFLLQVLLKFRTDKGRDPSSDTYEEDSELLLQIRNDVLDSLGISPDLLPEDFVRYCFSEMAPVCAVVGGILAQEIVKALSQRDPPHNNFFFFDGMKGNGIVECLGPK

SMILES	IC50 [µM]
NS(=O)(=O)OC[C@H]1C[C@@H](Nc2ncncc2C(=O)c2cc3c(s2)CCC[C@@]32NCCc3ccccc32)C[C@@H]1O [Compound 2]	> 0.2
NS(=O)(=O)OC[C@H]1C[C@@H](Nc2ncncc2C(=O)c2cc3c(s2)CC[C@]32NC3(CC3)Cc3ccc(Cl)cc32)C[C@@H]1O [Compound 241]	0.05 to 0.2
NS(=O)(=O)OC[C@H]1C[C@@H](Nc2ncncc2C(=O)c2cc3c(s2)CCC[C@]32NCCc3cc(Cl)ncc32)C[C@@H]1O [Compound 215]	0.05 to 0.2
NS(=O)(=O)OC[C@H]1C[C@@H](Nc2ncncc2C(=O)c2cc3c(s2)CCC[C@]32NCCc3ncc(Cl)cc32)C[C@@H]1O [Compound 141]	≤ 0.05
NS(=O)(=O)OC[C@H]1C[C@@H](Nc2ncncc2C(=O)c2cc3c(s2)CCC[C@@]32NC(=O)Cc3ccc(Cl)cc32)C[C@@H]1O [Compound 164]	> 0.2
NS(=O)(=O)OC[C@H]1C[C@@H](Nc2ncncc2C(=O)c2cc3c(s2)COCC32NCCc3ccc(Cl)c(Cl)c32)C[C@@H]1O (some centres unmarked) [Compound 94]	0.05 to 0.2
C#CCN1Cc2sc(C(=O)c3cncnc3N[C@@H]3C[C@H](COS(N)(=O)=O)[C@@H](O)C3)cc2C2(C1)NCCc1ccc(Cl)cc12 (some centres unmarked) [Compound 193]	≤ 0.05
N#Cc1ccc2c(c1)C1(CCCc3sc(C(=O)c4cncnc4N[C@@H]4C[C@H](COS(N)(=O)=O)[C@@H](O)C4)cc31)OCC2 (some centres unmarked) [Compound 250]	0.05 to 0.2
N#Cc1ccc2c(c1)[C@]1(CCc3sc(C(=O)c4cncnc4N[C@@H]4C[C@H](COS(N)(=O)=O)[C@@H](O)C4)cc31)NCC2 [Compound 53]	> 0.2
NS(=O)(=O)OC[C@H]1C[C@@H](Nc2ncncc2C(=O)c2cc3c(s2)CSC[C@@]32NCCc3ccc(F)cc32)C[C@@H]1O [Compound 89]	> 0.2
NS(=O)(=O)OC[C@H]1C[C@@H](Nc2ncncc2C(=O)c2cc3c(s2)CNCC32NCCc3ccc(Cl)cc32)C[C@@H]1O (some centres unmarked) [Compound 118]	0.05 to 0.2
N#Cc1cc2c(cc1Cl)[C@@]1(CCc3sc(C(=O)c4cncnc4N[C@@H]4C[C@H](COS(N)(=O)=O)[C@@H](O)C4)cc31)NCC2 [Compound 231]	≤ 0.05
N#Cc1ccc2c(c1)[C@]1(CCCc3sc(C(=O)c4cncnc4N[C@@H]4C[C@H](COS(N)(=O)=O)[C@@H](O)C4)cc31)NCC2 [Compound 11]	> 0.2
NS(=O)(=O)OC[C@H]1C[C@@H](Nc2ncncc2C(=O)c2cc3c(s2)CCC[C@@]32NCCc3cnc(Cl)cc32)C[C@@H]1O [Compound 134]	> 0.2
NS(=O)(=O)OC[C@H]1C[C@@H](Nc2ncncc2C(=O)c2nc3c(s2)CCC[C@@]32NCCc3ccc(Cl)cc32)C[C@@H]1O [Compound 122]	> 0.2
NS(=O)(=O)OC[C@H]1C[C@@H](Nc2ncncc2C(=O)c2cc3c(s2)C=C[C@@]32OCCc3ccccc32)C[C@@H]1O [Compound 290]	> 0.2
NS(=O)(=O)OC[C@H]1C[C@@H](Nc2ncncc2C(=O)c2cc3c(s2)CCC[C@]32NCCc3cc(F)c(Cl)cc32)C[C@@H]1O [Compound 207]	≤ 0.05
NS(=O)(=O)OC[C@H]1C[C@@H](Nc2ncncc2C(=O)c2cc3c(s2)CN(CC(F)(F)F)CC32NCCc3ccc(Cl)cc32)C[C@@H]1O (some centres unmarked) [Compound 187]	≤ 0.05
NS(=O)(=O)OC[C@H]1C[C@@H](Nc2ncncc2C(=O)c2cc3c(s2)COC[C@]32NCCc3cc(Cl)c(Cl)cc32)C[C@@H]1O [Compound 99]	0.05 to 0.2
N#Cc1ccc2c(c1)C1(C=Cc3sc(C(=O)c4cncnc4N[C@@H]4C[C@H](COS(N)(=O)=O)[C@@H](O)C4)cc31)OCC2 (some centres unmarked) [Compound 298]	0.05 to 0.2
NS(=O)(=O)OC[C@H]1C[C@@H](Nc2ncncc2C(=O)c2cc3c(s2)C=C[C@@]32NCCc3ccc(F)cc32)C[C@@H]1O [Compound 177]	> 0.2
NS(=O)(=O)OC[C@H]1C[C@@H](Nc2ncncc2C(=O)c2cc3c(s2)CCC[C@]32NCCc3ccc(C4CC4)cc32)C[C@@H]1O [Compound 203]	0.05 to 0.2
NS(=O)(=O)OC[C@H]1C[C@@H](Nc2ncncc2C(=O)c2cc3c(s2)CO[C@]32NCCc3ccc(Cl)cc32)C[C@@H]1O [Compound 239]	0.05 to 0.2
NS(=O)(=O)OC[C@H]1C[C@@H](Nc2ncncc2C(=O)c2cc3c(s2)OC[C@]32NCCc3ccccc32)C[C@@H]1O [Compound 57]	0.05 to 0.2
COc1cc2c(cc1Cl)C1(CCc3sc(C(=O)c4cncnc4N[C@@H]4C[C@H](COS(N)(=O)=O)[C@@H](O)C4)cc31)NCC2 (some centres unmarked) [Compound 73]	0.05 to 0.2
NS(=O)(=O)OC[C@H]1C[C@@H](Nc2ncncc2C(=O)c2cc3c(s2)CC[C@]32NCCc3ccc(C(F)(F)F)cc32)C[C@@H]1O [Compound 226]	0.05 to 0.2

SMILES	IC50 [µM]
NS(=O)(=O)OC[C@H]1C[C@@H](Nc2ncncc2C(=O)c2cc3c(s2)CSC[C@]32NCCc3ccc(F)cc32)C[C@@H]1O [Compound 90]	≤ 0.05
NS(=O)(=O)OC[C@H]1C[C@@H](Nc2ncncc2C(=O)c2cc3c(s2)CCC[C@]32OCCc3ccc(F)cc32)C[C@@H]1O [Compound 249]	≤ 0.05
NS(=O)(=O)OC[C@H]1C[C@@H](Nc2ncncc2C(=O)c2cc3c(s2)OC[C@]32NCCc3ccc(F)cc32)C[C@@H]1O [Compound 60]	0.05 to 0.2
COc1cc2c(cc1Cl)C1(CCCc3sc(C(=O)c4cncnc4N[C@@H]4C[C@H](COS(N)(=O)=O)[C@@H](O)C4)cc31)NCC2 (some centres unmarked) [Compound 31]	0.05 to 0.2
NS(=O)(=O)OC[C@H]1C[C@@H](Nc2ncncc2C(=O)c2cc3c(s2)COC[C@]32NCCc3ccccc32)C[C@@H]1O [Compound 15]	0.05 to 0.2
NS(=O)(=O)OC[C@H]1C[C@@H](Nc2ncncc2C(=O)c2cc3c(s2)C(=O)C[C@@]32NCCc3ccc(Cl)cc32)C[C@@H]1O [Compound 167]	> 0.2
Cc1ccc2c(c1)[C@@]1(CCCc3sc(C(=O)c4cncnc4N[C@@H]4C[C@H](COS(N)(=O)=O)[C@@H](O)C4)cc31)NCC2 [Compound 202]	0.05 to 0.2
N#Cc1ccc2c(c1)[C@@]1(C=Cc3sc(C(=O)c4cncnc4N[C@@H]4C[C@H](COS(N)(=O)=O)[C@@H](O)C4)cc31)OCC2 [Compound 300]	≤ 0.05
CN1CCc2ccc(Cl)cc2C12CCCc1sc(C(=O)c3cncnc3N[C@@H]3C[C@H](COS(N)(=O)=O)[C@@H](O)C3)cc12 (some centres unmarked) [Compound 130]	0.05 to 0.2
NS(=O)(=O)OC[C@H]1C[C@@H](Nc2ncncc2C(=O)c2cc3c(s2)C(F)(F)C[C@@]32NCCc3ccc(Cl)cc32)C[C@@H]1O [Compound 161]	> 0.2
COc1ccc2c(c1)C1(CCCc3sc(C(=O)c4cncnc4N[C@@H]4C[C@H](COS(N)(=O)=O)[C@@H](O)C4)cc31)NCC2 (some centres unmarked) [Compound 24]	> 0.2
CC(C)N1Cc2sc(C(=O)c3cncnc3N[C@@H]3C[C@H](COS(N)(=O)=O)[C@@H](O)C3)cc2[C@]2(C1)OCCc1ccc(F)cc12 [Compound 270]	≤ 0.05
NS(=O)(=O)OC[C@H]1C[C@@H](Nc2ncncc2C(=O)c2cc3c(s2)CCCC32NC3(CC3)Cc3ccc(Cl)cc32)C[C@@H]1O (some centres unmarked) [Compound 40]	0.05 to 0.2
Cc1cc2c(cc1Cl)C1(CCc3sc(C(=O)c4cncnc4N[C@@H]4C[C@H](COS(N)(=O)=O)[C@@H](O)C4)cc31)NCC2 (some centres unmarked) [Compound 71]	0.05 to 0.2
NS(=O)(=O)OC[C@H]1C[C@@H](Nc2ncncc2C(=O)c2cc3c(s2)CC[C@]32NCCc3ccncc32)C[C@@H]1O [Compound 235]	0.05 to 0.2
COc1ccc2c(c1)[C@@]1(CCCc3sc(C(=O)c4cncnc4N[C@@H]4C[C@H](COS(N)(=O)=O)[C@@H](O)C4)cc31)NCC2 [Compound 180]	> 0.2
NS(=O)(=O)OC[C@H]1C[C@@H](Nc2ncncc2C(=O)c2cc3c(s2)CSC[C@@]32NCCc3ncc(Cl)cc32)C[C@@H]1O [Compound 149]	> 0.2
[2H]C1([2H])CNC2(CCCc3sc(C(=O)c4cncnc4N[C@@H]4C[C@H](COS(N)(=O)=O)[C@@H](O)C4)cc32)c2cc(Cl)ccc21 (some centres unmarked) [Compound 199]	≤ 0.05
NS(=O)(=O)CC[C@H]1C[C@@H](Nc2ncncc2C(=O)c2cc3c(s2)CSC[C@]32NCCc3ncc(Cl)cc32)C[C@@H]1O [Compound 150]	≤ 0.05
N#Cc1cc2c(cc1Cl)[C@@]1(CCCc3sc(C(=O)c4cncnc4N[C@@H]4C[C@H](COS(N)(=O)=O)[C@@H](O)C4)cc31)NCC2 [Compound 210]	≤ 0.05
NS(=O)(=O)OC[C@H]1C[C@@H](Nc2ncncc2C(=O)c2cc3c(s2)CC[C@]32NCCc3cc(Cl)c(Cl)cc32)C[C@@H]1O [Compound 229]	≤ 0.05
NS(=O)(=O)OC[C@H]1C[C@@H](Nc2ncncc2C(=O)c2cc3c(s2)COCC32NCCc3c(F)cc(Cl)cc32)C[C@@H]1O (some centres unmarked) [Compound 109]	0.05 to 0.2
CN1Cc2sc(C(=O)c3cncnc3N[C@@H]3C[C@H](COS(N)(=O)=O)[C@@H](O)C3)cc2C2(C1)OCCc1ccccc12 (some centres unmarked) [Compound 253]	0.05 to 0.2
NS(=O)(=O)OC[C@H]1C[C@@H](Nc2ncncc2C(=O)c2cc3c(s2)CCC32NCCc3cc(F)c(F)cc32)C[C@@H]1O (some centres unmarked) [Compound 68]	0.05 to 0.2
CN1Cc2sc(C(=O)c3cncnc3N[C@@H]3C[C@H](COS(N)(=O)=O)[C@@H](O)C3)cc2[C@@]2(C1)OCCc1ccc(Cl)cc12 [Compound 260]	> 0.2

Same assay, conditions: 6 h incubation, numeric values, read-out: SUMO IF IC50

SMILES	IC50 [µM]
CC(C)N1Cc2sc(C(=O)c3cncnc3N[C@@H]3C[C@H](COS(N)(=O)=O)[C@@H](O)C3)cc2[C@@]2(C1)NCCc1ccc(Cl)cc12 [Compound 185]	> 1
NS(=O)(=O)OC[C@H]1C[C@@H](Nc2ncncc2C(=O)c2cc3c(s2)CC[C@@]32NCCc3ccc(F)cc32)C[C@@H]1O [Compound 50]	> 1
[2H]C1([2H])CN[C@@]2(CCCc3sc(C(=O)c4cncnc4N[C@@H]4C[C@H](COS(N)(=O)=O)[C@@H](O)C4)cc32)c2cc(Cl)ccc21 [Compound 200]	> 1
CN1Cc2sc(C(=O)c3cncnc3N[C@@H]3C[C@H](COS(N)(=O)=O)[C@@H](O)C3)cc2[C@]2(C1)NCCc1ccc(Cl)cc12 [Compound 114]	0.0228
NS(=O)(=O)OC[C@H]1C[C@@H](Nc2ncncc2C(=O)c2cc3c(s2)COC[C@@]32NCCc3ccc(Cl)cc32)C[C@@H]1O [Compound 20]	> 1

From US20260035382A1, “COMPOUNDS AS SUMO ACTIVATING ENZYME INHIBITORS” (WIGEN BIOMEDICINE TECHNOLOGY (SHANGHAI) CO., LTD., priority 2022, published 2026)
